Data published in patent US20100055168A1, “CATIONIC LIPIDS AND USES THEREOF” (ABBOTT LABORATORIES, priority 2008, published 2010).

System: β-galactosidase in tumor sections
Experiment: IHC analysis of β-galactosidase staining in intraliver tumor sections after i.v. dosing of Lipid-Based Particles
Assay type: in vivo, Scid female mice
Design: key: −: there was no staining, a small area of weak staining, or disperse strong single cell staining; ±: there was 5% of the section with weak staining or one patch of strong staining; +: there was 15% of the section with strong staining; ++: there was ˜50% of the section with strong straining; +++: there was 80% of the section with strong straining; ++++: the whole section had strong staining
Settings: intraliver tumor model, Scid mice, tail vein (i.v) injection
Procedure: The animal studies were carried out in accordance with internal Institutional Animal Care and Use Committee (IACUC) guidelines at Abbott Laboratories. Scid female mice at 6 to 8 weeks of age were obtained from Charles River Laboratory and used for […] tumor models. Mouse livers were exposed by vertical incision on mouse abdomens and the tumor cells were directly injected into the livers. The incision was closed by suture and wound clips. All cell lines used for creating xenograft tumors were subjected to the IMPACT profile I test (18 agents) at the University of Missouri Research Animal Diagnostic and Investigative Laboratory, and all cell lines were found negative for the 18 infectious agents tested. Tumor cells were suspended in a 1:1 mixture of S-MEM (Invitrogen, Carlsbad, Calif.) and matrigel (BD Bioscience, San Jose, Calif.) and inoculated at 1×10E6 cells per animal. Treatments were started 3 4 weeks after tumor inoculation. Formulated or unformulated siRNAs were administrated via tail vein (i.v) injection. IHC was carried out as previously described [Li, L., et al., Evaluating hypoxia-inducible factor-1alpha as a cancer therapeutic target via inducible RNA interference in vivo. Cancer Res, 2005. 65(16): p. 7249-58]. Briefly, tumors were excised, cut into pieces of less than 3 mm in thickness and immediately fixed in buffered formalin solution with neutral pH (Sigma, St. Louis, Mo.). The formalin-fixed and paraffin-embedded tumor sections were then used for staining. The mouse anti-β-galactosidase mAb (Promega, Madison, Wis.) was used to detect β-galactosidase in tumor sections. […] IHC images were acquired using the Nikon TE2000 inverted microscope. The β-galactosidase staining was evaluated by 2 people independently based on the scoring system listed below. The average of the score was calculated for each tumor.

Measured: In vivo Response (β-galactosidase IHC staining score)

C[C@H]1c2cccc(O)c2C(=O)C2=C(O)[C@]3(O)C(=O)C(C(N)=O)=C(O)[C@@H](N(C)C)[C@@H]3[C@@H](O)[C@@H]21 [Doxycycline]
+++: column 1 (individual tumor, head not explained) | column 2 (individual tumor, head not explained) | column 3 (individual tumor, head not explained) | column 4 (individual tumor, head not explained) | column 5 (individual tumor, head not explained) | column 6 (individual tumor, head not explained)
